Reference: the kinase profiling compilation of Christmann-Franck et al. (2016)

Legend:
Test in all cases: radiometric filter-binding kinase assay, Kinase HotSpot
Details in all cases: compound 0.5 µM; ATP 10 µM
CDC42BPB (human) = CDC42BPB (human) (UniProt Q9Y5S2)
CSNK2A1 (human) = CSNK2A1 (human) (UniProt P68400)
NLK (human) = NLK (human) (UniProt Q9UBE8)
WNK3 (human) = WNK3 (human) (UniProt Q9BYP7)
DCLK2 (human) = DCLK2 (human) (UniProt Q8N568)
TNK2 (human) = TNK2 (human) (UniProt Q07912)
AKT1 (human) = AKT1 (human) (UniProt P31749)
CAMK4 (human) = CAMK4 (human) (UniProt Q16566)
SGK2 (human) = SGK2 (human) (UniProt Q9HBY8)
TXK (human) = TXK (human) (UniProt P42681)
CSNK1G1 (human) = CSNK1G1 (human) (UniProt Q9HCP0)
PRKX (human) = PRKX (human) (UniProt P51817)
PRKD1 (human) = PRKD1 (human) (UniProt Q15139)
RPS6KA5 KD2 (human) = RPS6KA5 KD2 (human) (UniProt O75582)
EPHA2 (human) = EPHA2 (human) (UniProt P29317)
ALK (human) = ALK (human) (UniProt Q9UM73)
MET (human) = MET (human) (UniProt P08581)
EPHA4 (human) = EPHA4 (human) (UniProt P54764)
STK17A (human) = STK17A (human) (UniProt Q9UEE5)
MAP3K8 (human) = MAP3K8 (human) (UniProt P41279)
FGFR4 (human) = FGFR4 (human) (UniProt P22455)
PHKG2 (human) = PHKG2 (human) (UniProt P15735)
HIPK4 (human) = HIPK4 (human) (UniProt Q8NE63)
DYRK3 (human) = DYRK3 (human) (UniProt O43781)
MAPK11 (human) = MAPK11 (human) (UniProt Q15759)
ACVRL1 (human) = ACVRL1 (human) (UniProt P37023)
[1] = biological target: JAK1 JH1 catalytic (human) (UniProt P23458)
MAP3K3 (human) = MAP3K3 (human) (UniProt Q99759)
RPS6KA1 KD1 KD2 (human) = RPS6KA1 KD1 KD2 (human) (UniProt Q15418)
CDK2 CCNA2 (human) = CDK2 CCNA2 (human) (UniProt P24941+P20248)
RPS6KA2 KD1 KD2 (human) = RPS6KA2 KD1 KD2 (human) (UniProt Q15349)
PAK2 (human) = PAK2 (human) (UniProt Q13177)
MAPK12 (human) = MAPK12 (human) (UniProt P53778)
DYRK1B (human) = DYRK1B (human) (UniProt Q9Y463)
CHEK2 (human) = CHEK2 (human) (UniProt O96017)
PRKCB1 (human) = PRKCB1 (human) (UniProt P05771)
PIM1 (human) = PIM1 (human) (UniProt P11309)
ULK2 (human) = ULK2 (human) (UniProt Q8IYT8)
TEK (human) = TEK (human) (UniProt Q02763)
MAP4K5 (human) = MAP4K5 (human) (UniProt Q9Y4K4)
CAMK1 (human) = CAMK1 (human) (UniProt Q14012)

CSNK2A1 (human), sequence (P68400 whole entry, looked up): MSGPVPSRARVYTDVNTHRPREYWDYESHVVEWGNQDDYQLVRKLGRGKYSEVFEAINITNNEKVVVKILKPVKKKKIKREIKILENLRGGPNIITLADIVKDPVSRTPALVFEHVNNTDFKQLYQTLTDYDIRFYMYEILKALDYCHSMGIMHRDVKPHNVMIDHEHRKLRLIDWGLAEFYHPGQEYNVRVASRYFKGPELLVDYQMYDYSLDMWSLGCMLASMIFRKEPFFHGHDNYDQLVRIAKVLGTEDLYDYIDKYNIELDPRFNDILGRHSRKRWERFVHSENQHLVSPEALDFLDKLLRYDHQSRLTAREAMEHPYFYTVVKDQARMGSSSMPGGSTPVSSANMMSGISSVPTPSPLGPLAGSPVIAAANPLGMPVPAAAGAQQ
MAP3K8 (human), sequence (P41279 whole entry, looked up): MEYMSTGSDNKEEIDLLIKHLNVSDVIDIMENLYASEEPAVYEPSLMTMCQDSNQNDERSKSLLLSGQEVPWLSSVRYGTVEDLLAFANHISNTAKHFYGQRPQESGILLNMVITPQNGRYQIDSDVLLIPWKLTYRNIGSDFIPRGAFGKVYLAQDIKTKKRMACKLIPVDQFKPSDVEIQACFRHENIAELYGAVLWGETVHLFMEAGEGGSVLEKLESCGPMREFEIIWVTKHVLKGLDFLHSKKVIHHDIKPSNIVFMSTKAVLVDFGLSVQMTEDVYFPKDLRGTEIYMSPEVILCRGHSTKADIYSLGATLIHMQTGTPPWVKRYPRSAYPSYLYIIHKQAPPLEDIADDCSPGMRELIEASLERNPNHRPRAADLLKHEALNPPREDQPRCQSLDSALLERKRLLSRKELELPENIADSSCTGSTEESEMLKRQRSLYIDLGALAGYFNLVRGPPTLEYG
MAPK12 (human), sequence (P53778 whole entry, looked up): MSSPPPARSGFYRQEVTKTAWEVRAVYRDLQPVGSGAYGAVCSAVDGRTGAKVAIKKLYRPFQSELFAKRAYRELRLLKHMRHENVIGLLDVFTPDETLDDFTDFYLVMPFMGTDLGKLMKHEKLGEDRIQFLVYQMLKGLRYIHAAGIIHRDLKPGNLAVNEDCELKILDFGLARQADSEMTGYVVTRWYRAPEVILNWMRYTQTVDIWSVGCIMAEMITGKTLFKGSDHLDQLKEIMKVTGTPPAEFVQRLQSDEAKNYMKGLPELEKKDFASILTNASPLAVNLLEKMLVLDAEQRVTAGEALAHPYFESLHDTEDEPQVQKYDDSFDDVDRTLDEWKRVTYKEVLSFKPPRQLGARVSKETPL
AKT1 (human), sequence (P31749 whole entry, looked up): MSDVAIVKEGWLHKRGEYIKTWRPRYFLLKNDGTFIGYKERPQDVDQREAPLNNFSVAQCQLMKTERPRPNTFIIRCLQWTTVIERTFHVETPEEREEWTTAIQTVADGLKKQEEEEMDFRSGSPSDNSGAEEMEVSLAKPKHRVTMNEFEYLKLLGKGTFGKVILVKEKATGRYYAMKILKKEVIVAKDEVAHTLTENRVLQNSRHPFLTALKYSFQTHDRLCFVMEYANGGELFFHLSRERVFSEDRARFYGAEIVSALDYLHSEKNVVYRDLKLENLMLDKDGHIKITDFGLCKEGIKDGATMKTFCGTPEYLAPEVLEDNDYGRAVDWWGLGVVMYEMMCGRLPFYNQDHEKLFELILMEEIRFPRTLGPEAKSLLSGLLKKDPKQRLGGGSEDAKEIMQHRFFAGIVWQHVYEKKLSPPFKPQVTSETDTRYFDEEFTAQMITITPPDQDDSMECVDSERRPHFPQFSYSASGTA
PIM1 (human), sequence (P11309 whole entry, looked up): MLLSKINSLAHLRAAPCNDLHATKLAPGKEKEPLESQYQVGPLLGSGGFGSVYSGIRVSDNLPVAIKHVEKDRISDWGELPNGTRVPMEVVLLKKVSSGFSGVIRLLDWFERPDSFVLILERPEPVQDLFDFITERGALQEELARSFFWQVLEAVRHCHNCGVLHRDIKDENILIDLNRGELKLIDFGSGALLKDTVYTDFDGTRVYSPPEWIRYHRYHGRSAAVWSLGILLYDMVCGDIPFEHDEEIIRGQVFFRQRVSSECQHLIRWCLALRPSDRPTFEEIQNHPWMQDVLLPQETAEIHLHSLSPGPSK
TXK (human), sequence (P42681 whole entry, looked up): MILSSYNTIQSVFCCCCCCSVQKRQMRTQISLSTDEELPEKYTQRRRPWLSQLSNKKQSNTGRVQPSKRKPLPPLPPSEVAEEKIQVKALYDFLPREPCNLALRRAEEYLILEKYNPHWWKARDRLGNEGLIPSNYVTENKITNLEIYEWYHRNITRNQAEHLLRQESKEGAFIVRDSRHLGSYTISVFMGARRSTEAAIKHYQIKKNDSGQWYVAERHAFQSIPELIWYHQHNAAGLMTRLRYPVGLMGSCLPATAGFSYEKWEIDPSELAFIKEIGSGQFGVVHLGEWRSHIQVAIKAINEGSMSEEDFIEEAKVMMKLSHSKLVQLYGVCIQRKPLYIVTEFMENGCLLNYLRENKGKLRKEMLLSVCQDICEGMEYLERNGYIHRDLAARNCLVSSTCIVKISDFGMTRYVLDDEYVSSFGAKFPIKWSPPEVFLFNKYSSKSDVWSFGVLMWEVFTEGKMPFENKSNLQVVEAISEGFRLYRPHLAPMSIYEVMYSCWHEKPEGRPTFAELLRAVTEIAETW
CHEK2 (human), sequence (O96017 whole entry, looked up): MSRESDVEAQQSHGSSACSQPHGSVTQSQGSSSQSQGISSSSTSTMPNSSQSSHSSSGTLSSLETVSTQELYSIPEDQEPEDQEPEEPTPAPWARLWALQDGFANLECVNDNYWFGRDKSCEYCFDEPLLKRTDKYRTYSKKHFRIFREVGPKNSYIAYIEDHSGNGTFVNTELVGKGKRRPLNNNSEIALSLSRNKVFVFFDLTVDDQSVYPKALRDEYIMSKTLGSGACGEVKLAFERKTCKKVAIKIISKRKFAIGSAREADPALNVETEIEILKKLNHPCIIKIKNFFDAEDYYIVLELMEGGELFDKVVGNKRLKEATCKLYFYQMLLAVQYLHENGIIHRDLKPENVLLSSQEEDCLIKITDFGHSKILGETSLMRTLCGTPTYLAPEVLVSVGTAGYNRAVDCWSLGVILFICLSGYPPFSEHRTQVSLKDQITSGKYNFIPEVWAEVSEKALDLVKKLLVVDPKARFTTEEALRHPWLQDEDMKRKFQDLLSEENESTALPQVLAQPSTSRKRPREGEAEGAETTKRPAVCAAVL
PHKG2 (human), sequence (P15735 whole entry, looked up): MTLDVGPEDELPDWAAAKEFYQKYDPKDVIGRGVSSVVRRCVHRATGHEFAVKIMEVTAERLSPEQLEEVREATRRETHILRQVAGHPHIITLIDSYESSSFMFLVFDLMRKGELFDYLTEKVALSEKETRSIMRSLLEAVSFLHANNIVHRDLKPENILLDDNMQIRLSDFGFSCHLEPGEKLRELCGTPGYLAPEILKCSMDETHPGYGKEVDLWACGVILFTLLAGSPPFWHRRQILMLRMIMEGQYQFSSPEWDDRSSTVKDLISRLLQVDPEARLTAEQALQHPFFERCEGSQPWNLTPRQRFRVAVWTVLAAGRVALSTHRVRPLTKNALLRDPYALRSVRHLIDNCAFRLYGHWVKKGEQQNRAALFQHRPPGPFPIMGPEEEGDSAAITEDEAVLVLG
HIPK4 (human), sequence (Q8NE63 whole entry, looked up): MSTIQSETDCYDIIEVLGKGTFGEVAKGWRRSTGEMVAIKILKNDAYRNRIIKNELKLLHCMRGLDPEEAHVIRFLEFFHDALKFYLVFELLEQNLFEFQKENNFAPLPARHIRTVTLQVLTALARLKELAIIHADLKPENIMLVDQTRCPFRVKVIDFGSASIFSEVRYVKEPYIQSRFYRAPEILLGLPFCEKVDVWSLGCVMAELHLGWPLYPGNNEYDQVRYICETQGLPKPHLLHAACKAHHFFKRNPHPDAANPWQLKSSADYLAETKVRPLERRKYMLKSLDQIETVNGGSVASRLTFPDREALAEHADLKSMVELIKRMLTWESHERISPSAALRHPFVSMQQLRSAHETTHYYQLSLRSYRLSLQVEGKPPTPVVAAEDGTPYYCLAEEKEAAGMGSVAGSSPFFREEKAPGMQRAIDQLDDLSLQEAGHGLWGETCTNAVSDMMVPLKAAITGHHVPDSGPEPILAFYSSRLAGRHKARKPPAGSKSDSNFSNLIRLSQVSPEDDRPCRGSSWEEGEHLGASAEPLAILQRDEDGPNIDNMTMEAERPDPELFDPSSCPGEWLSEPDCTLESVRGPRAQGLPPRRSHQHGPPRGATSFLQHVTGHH
MAPK11 (human), sequence (Q15759 whole entry, looked up): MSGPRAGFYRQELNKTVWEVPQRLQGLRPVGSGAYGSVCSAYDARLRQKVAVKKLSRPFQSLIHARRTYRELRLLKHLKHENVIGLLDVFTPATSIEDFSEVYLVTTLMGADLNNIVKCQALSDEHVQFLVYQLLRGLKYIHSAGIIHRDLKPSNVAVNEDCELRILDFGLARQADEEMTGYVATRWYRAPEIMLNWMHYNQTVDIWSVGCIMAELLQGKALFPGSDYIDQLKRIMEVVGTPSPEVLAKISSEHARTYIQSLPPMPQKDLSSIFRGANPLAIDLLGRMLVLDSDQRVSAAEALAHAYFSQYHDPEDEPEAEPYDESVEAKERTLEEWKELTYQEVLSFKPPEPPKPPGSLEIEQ
PRKX (human), sequence (P51817 whole entry, looked up): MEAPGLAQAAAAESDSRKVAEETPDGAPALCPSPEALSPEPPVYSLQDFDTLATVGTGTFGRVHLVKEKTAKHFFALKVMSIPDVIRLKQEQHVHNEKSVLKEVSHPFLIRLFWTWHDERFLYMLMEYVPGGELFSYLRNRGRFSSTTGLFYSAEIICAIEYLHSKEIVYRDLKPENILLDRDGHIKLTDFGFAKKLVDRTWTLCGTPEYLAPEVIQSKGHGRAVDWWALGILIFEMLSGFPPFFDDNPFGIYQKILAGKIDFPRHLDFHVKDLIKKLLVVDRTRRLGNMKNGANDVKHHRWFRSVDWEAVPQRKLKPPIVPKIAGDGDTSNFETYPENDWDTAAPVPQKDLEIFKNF

c1ccc(-c2n[nH]c3c2oc2ccccc23)cc1
residual activity (CDC42BPB (human)): 99%
residual activity (CSNK2A1 (human)): 87.2%
residual activity (NLK (human)): 92.3%
residual activity (WNK3 (human)): 91.5%
residual activity (DCLK2 (human)): 90.2%
residual activity (TNK2 (human)): 85.8%
residual activity (AKT1 (human)): 86.9%
residual activity (CAMK4 (human)): 93.7%
residual activity (SGK2 (human)): 93%
residual activity (TXK (human)): 81.5%
residual activity (CSNK1G1 (human)): 91.6%
residual activity (PRKX (human)): 79.8%
residual activity (PRKD1 (human)): 79.2%
residual activity (RPS6KA5 KD2 (human)): 94.9%
residual activity (EPHA2 (human)): 105%
residual activity (ALK (human)): 95.9%
residual activity (MET (human)): 98.4%
residual activity (EPHA4 (human)): 95.5%
residual activity (STK17A (human)): 84.4%
residual activity (MAP3K8 (human)): 105%
residual activity (FGFR4 (human)): 85.5%
residual activity (PHKG2 (human)): 112%
residual activity (HIPK4 (human)): 103%
residual activity (DYRK3 (human)): 93%
residual activity (MAPK11 (human)): 95.7%
residual activity (ACVRL1 (human)): 111%
residual activity [1]: 104%
residual activity (MAP3K3 (human)): 94.7%
residual activity (RPS6KA1 KD1 KD2 (human)): 100%
residual activity (CDK2 CCNA2 (human)): 88.1%
residual activity (RPS6KA2 KD1 KD2 (human)): 77.5%
residual activity (PAK2 (human)): 92.3%
residual activity (MAPK12 (human)): 100%
residual activity (DYRK1B (human)): 101%
residual activity (CHEK2 (human)): 101%
residual activity (PRKCB1 (human)): 103%
residual activity (PIM1 (human)): 83.3%
residual activity (ULK2 (human)): 96.4%
residual activity (TEK (human)): 96.8%
residual activity (MAP4K5 (human)): 36.6%
residual activity (CAMK1 (human)): 85.2%

O=c1cc(N2CCOCC2)oc2c1ccc1ccccc12
residual activity (CDC42BPB (human)): 98.3%
residual activity (CSNK2A1 (human)): 70.9%
residual activity (NLK (human)): 103%
residual activity (WNK3 (human)): 97.5%
residual activity (DCLK2 (human)): 100%
residual activity (TNK2 (human)): 100%
residual activity (AKT1 (human)): 101%
residual activity (CAMK4 (human)): 94%
residual activity (SGK2 (human)): 102%
residual activity (TXK (human)): 98.9%
residual activity (CSNK1G1 (human)): 101%
residual activity (PRKX (human)): 96.6%
residual activity (PRKD1 (human)): 102%
residual activity (RPS6KA5 KD2 (human)): 103%
residual activity (EPHA2 (human)): 110%
residual activity (ALK (human)): 104%
residual activity (MET (human)): 161%
residual activity (EPHA4 (human)): 94.4%
residual activity (STK17A (human)): 94.6%
residual activity (MAP3K8 (human)): 98.3%
residual activity (FGFR4 (human)): 108%
residual activity (PHKG2 (human)): 99.8%
residual activity (HIPK4 (human)): 101%
residual activity (DYRK3 (human)): 96%
residual activity (MAPK11 (human)): 97.9%
residual activity (ACVRL1 (human)): 100%
residual activity [1]: 104%
residual activity (MAP3K3 (human)): 102%
residual activity (RPS6KA1 KD1 KD2 (human)): 92%
residual activity (CDK2 CCNA2 (human)): 100%
residual activity (RPS6KA2 KD1 KD2 (human)): 98.8%
residual activity (PAK2 (human)): 103%
residual activity (MAPK12 (human)): 97.4%
residual activity (DYRK1B (human)): 90.5%
residual activity (CHEK2 (human)): 104%
residual activity (PRKCB1 (human)): 93.4%
residual activity (PIM1 (human)): 54.8%
residual activity (ULK2 (human)): 94.9%
residual activity (TEK (human)): 94.4%
residual activity (MAP4K5 (human)): 103%
residual activity (CAMK1 (human)): 111%

COc1ccc(COc2ccc(Cc3cnc(N)nc3N)cc2OC)cc1
residual activity (CDC42BPB (human)): 96.9%
residual activity (CSNK2A1 (human)): 105%
residual activity (NLK (human)): 105%
residual activity (WNK3 (human)): 100%
residual activity (DCLK2 (human)): 101%
residual activity (TNK2 (human)): 105%
residual activity (AKT1 (human)): 97.4%
residual activity (CAMK4 (human)): 94.7%
residual activity (SGK2 (human)): 97.5%
residual activity (TXK (human)): 101%
residual activity (CSNK1G1 (human)): 92.7%
residual activity (PRKX (human)): 105%
residual activity (PRKD1 (human)): 95.2%
residual activity (RPS6KA5 KD2 (human)): 103%
residual activity (EPHA2 (human)): 107%
residual activity (ALK (human)): 97.4%
residual activity (MET (human)): 76.1%
residual activity (EPHA4 (human)): 105%
residual activity (STK17A (human)): 102%
residual activity (MAP3K8 (human)): 98.4%
residual activity (FGFR4 (human)): 99.7%
residual activity (PHKG2 (human)): 106%
residual activity (HIPK4 (human)): 97.7%
residual activity (DYRK3 (human)): 108%
residual activity (MAPK11 (human)): 98.7%
residual activity (ACVRL1 (human)): 101%
residual activity [1]: 105%
residual activity (MAP3K3 (human)): 97.8%
residual activity (RPS6KA1 KD1 KD2 (human)): 92.7%
residual activity (RPS6KA2 KD1 KD2 (human)): 105%
residual activity (PAK2 (human)): 95.3%
residual activity (MAPK12 (human)): 102%
residual activity (DYRK1B (human)): 104%
residual activity (CHEK2 (human)): 107%
residual activity (PRKCB1 (human)): 102%
residual activity (PIM1 (human)): 104%
residual activity (ULK2 (human)): 105%
residual activity (TEK (human)): 101%
residual activity (MAP4K5 (human)): 97.4%
residual activity (CAMK1 (human)): 103%
